As a reminder, the Ki is the equilibrium dissociation constant of an inhibitor or competing ligand from its target. Higher therefore signals weaker binding.

Each structure is given as a SMILES string.

34 compounds from patent publication US8940724B2, “Quinoline derivitives and their uses” (Amgen Inc., priority 2009, dated 2015) can be followed below.

T1 sequence (O00329 whole entry): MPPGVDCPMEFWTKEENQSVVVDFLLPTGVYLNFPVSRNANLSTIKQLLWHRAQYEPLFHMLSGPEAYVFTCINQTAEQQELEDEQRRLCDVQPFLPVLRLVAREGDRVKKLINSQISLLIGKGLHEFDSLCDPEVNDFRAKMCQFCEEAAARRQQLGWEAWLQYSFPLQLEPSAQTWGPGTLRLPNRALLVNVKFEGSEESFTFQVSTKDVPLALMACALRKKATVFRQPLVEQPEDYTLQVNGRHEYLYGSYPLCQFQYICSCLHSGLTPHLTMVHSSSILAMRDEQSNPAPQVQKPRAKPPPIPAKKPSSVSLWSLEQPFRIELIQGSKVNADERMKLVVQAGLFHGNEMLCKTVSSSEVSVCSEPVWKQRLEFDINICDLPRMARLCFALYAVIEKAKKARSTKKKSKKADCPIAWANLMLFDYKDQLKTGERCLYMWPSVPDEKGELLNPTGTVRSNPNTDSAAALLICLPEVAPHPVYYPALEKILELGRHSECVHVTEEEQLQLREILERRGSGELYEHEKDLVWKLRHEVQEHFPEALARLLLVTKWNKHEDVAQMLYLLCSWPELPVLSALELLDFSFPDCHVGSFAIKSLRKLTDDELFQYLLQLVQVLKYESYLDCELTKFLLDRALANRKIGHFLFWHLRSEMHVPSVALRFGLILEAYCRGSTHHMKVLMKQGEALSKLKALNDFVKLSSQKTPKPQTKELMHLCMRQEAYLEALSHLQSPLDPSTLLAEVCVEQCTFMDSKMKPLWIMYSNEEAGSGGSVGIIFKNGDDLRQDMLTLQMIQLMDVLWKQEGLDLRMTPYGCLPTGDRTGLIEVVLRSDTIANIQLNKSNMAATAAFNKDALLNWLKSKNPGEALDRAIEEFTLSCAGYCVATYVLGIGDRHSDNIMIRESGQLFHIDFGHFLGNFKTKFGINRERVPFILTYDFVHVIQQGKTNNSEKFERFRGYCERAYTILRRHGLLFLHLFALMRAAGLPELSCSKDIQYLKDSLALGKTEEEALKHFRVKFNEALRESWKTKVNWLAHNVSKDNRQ
T1 sequence (P27986 whole entry partner): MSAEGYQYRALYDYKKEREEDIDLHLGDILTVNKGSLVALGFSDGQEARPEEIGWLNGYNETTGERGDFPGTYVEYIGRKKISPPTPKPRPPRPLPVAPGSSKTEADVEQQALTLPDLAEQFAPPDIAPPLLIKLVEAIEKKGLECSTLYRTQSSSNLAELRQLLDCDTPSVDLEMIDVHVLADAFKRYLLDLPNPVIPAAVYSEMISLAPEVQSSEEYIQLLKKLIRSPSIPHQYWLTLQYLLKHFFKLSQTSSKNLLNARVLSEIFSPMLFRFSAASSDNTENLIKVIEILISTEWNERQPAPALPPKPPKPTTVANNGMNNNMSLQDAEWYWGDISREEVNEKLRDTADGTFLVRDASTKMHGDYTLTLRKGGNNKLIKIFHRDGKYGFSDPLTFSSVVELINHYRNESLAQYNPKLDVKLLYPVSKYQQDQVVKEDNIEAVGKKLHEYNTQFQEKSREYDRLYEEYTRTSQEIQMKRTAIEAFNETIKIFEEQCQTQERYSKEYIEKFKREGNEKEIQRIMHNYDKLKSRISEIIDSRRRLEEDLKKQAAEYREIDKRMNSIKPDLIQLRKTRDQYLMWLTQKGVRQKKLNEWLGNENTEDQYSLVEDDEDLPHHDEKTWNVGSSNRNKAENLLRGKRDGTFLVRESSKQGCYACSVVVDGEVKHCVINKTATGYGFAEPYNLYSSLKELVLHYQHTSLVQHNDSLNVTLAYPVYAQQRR

The test concerns the target T1, PI3Kδ (Homo sapiens, UniProt O00329).
T1 construct: Full length p110 subunits of PI3k α, β and δ, N-terminally labeled with polyHis tag; polyHis (N); made in house; host or cells: Sf9 insect cells (baculovirus)
Put plainly: PI3Kδ Alphascreen assay. It is filed as biochemical. (In general: In Alpha technology, singlet oxygen from a donor bead excites a nearby acceptor bead.)
`Cc1c(N2CCN(C(=O)C3CCOCC3)CC2)nc2cc(F)cc(F)c2c1Nc1cncc(N2CCOCC2)c1` [5,7-difluoro-3-methyl-N-(5-(4-morpholinyl)-3-pyridinyl)-2-(4-(tetrahydro-2H-pyran-4-ylcarbonyl)-1-piperazinyl)-4-quinolinamine] returned a Ki of 55.7 nM. The compound `CCS(=O)(=O)N1CCN(c2nc3cc(F)cc(F)c3c(Nc3cncc(N4CCOCC4)c3)c2C)CC1` [2-(4-(ethylsulfonyl)-1-piperazinyl)-5,7-difluoro-3-methyl-N-(5-(4-morpholinyl)-3-pyridinyl)-4-quinolinamine] yielded a Ki of 88.4 nM.

On to `Cc1c(-c2ccc(C(F)(F)F)nc2)nc2cc(F)cc(F)c2c1Nc1cc(N2CCOCC2)cnc1N1CCOCC1` [N-(2,5-di-4-morpholinyl-3-pyridinyl)-5,7-difluoro-3-methyl-2-(6-(trifluoromethyl)-3-pyridinyl)-4-quinolinamine], for which the Ki was determined as 23.2 nM.

Compound `COc1ccccc1-c1ncc(N2CCOCC2)cc1Nc1c(C)c(-c2ccccn2)nc2cc(F)cc(F)c12` [5,7-difluoro-N-(2-(2-methoxyphenyl)-5-(4-morpholinyl)-3-pyridinyl)-3-methyl-2-(2-pyridinyl)-4-quinolinamine] returned a Ki of 8.53 nM. `COc1cncc(-c2ncc(N3CCOCC3)cc2Nc2c(C)c(-c3cc(C)ccn3)nc3c(C#N)cccc23)c1` [4-((5′-methoxy-5-(4-morpholinyl)-2,3′-bipyridin-3-yl)amino)-3-methyl-2-(4-methyl-2-pyridinyl)-8-quinolinecarbonitrile] came in with a Ki of 233 nM. To `Cc1cncc(-c2nc3cc(F)cc(F)c3c(Nc3cc(N4CCOCC4)cnc3N3CCOCC3)c2C)c1` [N-(2,5-di-4-morpholinyl-3-pyridinyl)-5,7-difluoro-3-methyl-2-(5-methyl-3-pyridinyl)-4-quinolinamine] belongs 8.92 nM. As for `Cc1ccnc(-c2nc3c(Cl)cccc3c(Nc3cncc(N4CCOCC4)c3)c2C)c1` [8-chloro-3-methyl-2-(4-methyl-2-pyridinyl)-N-(5-(4-morpholinyl)-3-pyridinyl)-4-quinolinamine], the figure is 2.39 nM. With `Cc1c(N2CCN[C@@H](C)C2)nc2cc(F)cc(F)c2c1Nc1cncc(N2CCOCC2)c1` [5,7-difluoro-3-methyl-2-((3S)-3-methyl-1-piperazinyl)-N-(5-(4-morpholinyl)-3-pyridinyl)-4-quinolinamine], the Ki worked out at 20.6 nM.

The compound `COc1cc(-c2ncc(N3CCOCC3)cc2Nc2c(C)c(-c3ccccn3)nc3cc(F)cc(F)c23)ccn1` [N-(5,7-difluoro-3-methyl-2-(2-pyridinyl)-4-quinolinyl)-2′-methoxy-5-(4-morpholinyl)-2,4′-bipyridin-3-amine] returned a Ki of 7.93 nM. `CCCN1CCN(c2nc3cc(F)cc(F)c3c(Nc3cc(N4CCOCC4)cnc3N3CCOCC3)c2C)CC1=O` [4-(4-((2,5-di-4-morpholinyl-3-pyridinyl)amino)-5,7-difluoro-3-methyl-2-quinolinyl)-1-propyl-2-piperazinone] displayed an inhibitory constant (Ki) of 1.83 nM. Compound `Cc1c(-c2ccccn2)nc2cc(F)cc(F)c2c1Nc1cc(C2=CCOCC2)cnc1C1=CCOCC1` [N-(2,5-di-3,6-dihydro-2H-pyran-4-yl-3-pyridinyl)-5,7-difluoro-3-methyl-2-(2-pyridinyl)-4-quinolinamine] showed a Ki of 3.08 nM.

Regarding `CCN1CCN(c2nc3cc(F)cc(F)c3c(Nc3cncc(N4CCOCC4)c3)c2C)CC1=O` [4-(5,7-difluoro-3-methyl-4-((5-(4-morpholinyl)-3-pyridinyl)-amino)-2-quinolinyl)-1-ethyl-2-piperazinone], the affinity, expressed as Ki, was 13.2 nM. With `Cc1c(-c2ccccn2)nc2cc(F)cc(F)c2c1Nc1cc(N2CCOCC2)cnc1-c1ccc(S(C)(=O)=O)cc1` [5,7-difluoro-3-methyl-N-(2-(4-(methylsulfonyl)phenyl)-5-(4-morpholinyl)-3-pyridinyl)-2-(2-pyridinyl)-4-quinolinamine], the affinity, expressed as Ki, was 2.15 nM. Regarding `Cc1ccnc(-c2nc3cc(F)ccc3c(Nc3cc(N4CCOCC4)cnc3N3CCOCC3)c2C(C)C)c1` [N-(2,5-di-4-morpholinyl-3-pyridinyl)-7-fluoro-3-(1-methylethyl)-2-(4-methyl-2-pyridinyl)-4-quinolinamine], affinity was put at a Ki of 14.3 nM.

`Cc1ncccc1-c1nc2cc(F)cc(F)c2c(Nc2cc(N3CCOCC3)cnc2N2CCOCC2)c1C` [N-(2,5-di-4-morpholinyl-3-pyridinyl)-5,7-difluoro-3-methyl-2-(2-methyl-3-pyridinyl)-4-quinolinamine]: the Ki was 1.71 nM.

Regarding `CNC(=O)[C@H]1CCCN1c1nc2cc(F)cc(F)c2c(Nc2cncc(N3CCOCC3)c2)c1C` [1-(5,7-difluoro-3-methyl-4-((5-(4-morpholinyl)-3-pyridinyl)-amino)-2-quinolinyl)-N-methyl-D-prolinamide], the Ki turned out to be 10.4 nM.

For `COC(=O)N1CCN(c2nc3cc(F)cc(F)c3c(Nc3cncc(N4CCOCC4)c3)c2C)CC1` [methyl 4-(5,7-difluoro-3-methyl-4-((5-(4-morpholinyl)-3-pyridinyl)amino)-2-quinolinyl)-1-piperazinecarboxylate], the affinity corresponds to a Ki of 9.23 nM.

With `Cc1c(N2CCN(C(=O)c3ccncn3)CC2)nc2cc(F)cc(F)c2c1Nc1cncc(N2CCOCC2)c1` [5,7-difluoro-3-methyl-N-(5-(4-morpholinyl)-3-pyridinyl)-2-(4-(4-pyrimidinylcarbonyl)-1-piperazinyl)-4-quinolinamine], the inhibition constant Ki was determined as 99.1 nM. This Ki lies about 11-fold higher than the previous one. As for `Cc1ccc(C(=O)N2CCN(c3nc4cc(F)cc(F)c4c(Nc4cncc(N5CCOCC5)c4)c3C)CC2)o1` [5,7-difluoro-3-methyl-2-(4-((5-methyl-2-furanyl)carbonyl)-1-piperazinyl)-N-(5-(4-morpholinyl)-3-pyridinyl)-4-quinolinamine], the figure is 78.2 nM; as for `Cc1c(N2CC(C)(C)CC2=O)nc2cc(F)cc(F)c2c1Nc1cncc(N2CCOCC2)c1` [1-(5,7-difluoro-3-methyl-4-((5-(4-morpholinyl)-3-pyridinyl)-amino)-2-quinolinyl)-4,4-dimethyl-2-pyrrolidinone], 21.4 nM; as for `COc1ccc(-c2ncc(N3CCOCC3)cc2Nc2c(C)c(-c3ccccc3S(C)(=O)=O)nc3cc(F)cc(F)c23)cn1` [N-(5,7-difluoro-3-methyl-2-(2-(methylsulfonyl)phenyl)-4-quinolinyl)-6′-methoxy-5-(4-morpholinyl)-2,3′-bipyridin-3-amine], 1.76 nM. In turn, `Cc1c(N2CCN(C(=O)c3ccccc3)CC2)nc2cc(F)cc(F)c2c1Nc1cncc(N2CCOCC2)c1` [5,7-difluoro-3-methyl-N-(5-(4-morpholinyl)-3-pyridinyl)-2-(4-(phenylcarbonyl)-1-piperazinyl)-4-quinolinamine] registered a Ki of 87.9 nM. For the compound `CCOC(=O)N1CCN(c2nc3cc(F)cc(F)c3c(Nc3cncc(N4CCOCC4)c3)c2C)CC1` [ethyl 4-(5,7-difluoro-3-methyl-4-((5-(4-morpholinyl)-3-pyridinyl)amino)-2-quinolinyl)-1-piperazinecarboxylate], the Ki turned out to be 45.5 nM. In turn, `Cc1c(-c2ccnc(N3CCNCC3)c2)nc2cc(F)cc(F)c2c1Nc1cc(N2CCOCC2)cnc1N1CCOCC1` [N-(2,5-di-4-morpholinyl-3-pyridinyl)-5,7-difluoro-3-methyl-2-(2-(1-piperazinyl)-4-pyridinyl)-4-quinolinamine] showed a Ki of 34.7 nM. As for `Cc1ccnc(-c2nc3c(Cl)cccc3c(Nc3cc(N4CCOCC4)cnc3N3CCOCC3)c2C)c1` [8-chloro-N-(2,5-di-4-morpholinyl-3-pyridinyl)-3-methyl-2-(4-methyl-2-pyridinyl)-4-quinolinamine], the figure is 9.49 nM. The compound `Cc1c(-c2ccccc2S(C)(=O)=O)nc2cc(F)cc(F)c2c1Nc1cncc(N2CCOCC2)c1` [5,7-difluoro-3-methyl-2-(2-(methylsulfonyl)phenyl)-N-(5-(4-morpholinyl)-3-pyridinyl)-4-quinolinamine] gave a Ki of 3.24 nM.

As for `Cc1c(N2CCN(C(=O)OC(C)C)CC2)nc2cc(F)cc(F)c2c1Nc1cncc(N2CCOCC2)c1` [1-methylethyl 4-(5,7-difluoro-3-methyl-4-((5-(4-morpholinyl)-3-pyridinyl)amino)-2-quinolinyl)-1-piperazinecarboxylate], the affinity corresponds to a Ki of 38.8 nM. `Cc1c(-c2ccccn2)nc2cc(F)cc(F)c2c1Nc1cc(N2CCOCC2)cnc1-c1ccc(C#N)cc1` [4-(3-((5,7-difluoro-3-methyl-2-(2-pyridinyl)-4-quinolinyl)-amino)-5-(4-morpholinyl)-2-pyridinyl)benzonitrile] returned a Ki of 5.51 nM. As for `Cc1c(-c2cc(F)cc(F)c2)nc2ncccc2c1Nc1cc(N2CCOCC2)ccc1N1CCOCC1` [2-(3,5-difluorophenyl)-N-(2,5-di-4-morpholinylphenyl)-3-methyl-1,8-naphthyridin-4-amine], the figure is 582 nM; as for `COc1cc(C)c(-c2ncc(N3CCOCC3)cc2Nc2c(C)c(-c3ccccn3)nc3cc(F)cc(F)c23)c(C)c1` [5,7-difluoro-N-(2-(4-methoxy-2,6-dimethylphenyl)-5-(4-morpholinyl)-3-pyridinyl)-3-methyl-2-(2-pyridinyl)-4-quinolinamine], 0.972 nM. `Cc1c(N2CCN(S(=O)(=O)c3cccnc3)CC2)nc2cc(F)cc(F)c2c1Nc1cncc(N2CCOCC2)c1` [5,7-difluoro-3-methyl-N-(5-(4-morpholinyl)-3-pyridinyl)-2-(4-(3-pyridinylsulfonyl)-1-piperazinyl)-4-quinolinamine] had a Ki of 67.5 nM. As to `CCN1CCN(c2nc3cc(F)cc(F)c3c(Nc3cncc(N4CCOCC4)c3)c2C)CC1` [2-(4-ethyl-1-piperazinyl)-5,7-difluoro-3-methyl-N-(5-(4-morpholinyl)-3-pyridinyl)-4-quinolinamine], the affinity corresponds to a Ki of 15.3 nM.

For `Cc1c(-c2cc([N+](=O)[O-])ccc2F)nc2cc(F)ccc2c1Nc1cncc(N2CCOCC2)c1` [7-fluoro-2-(2-fluoro-5-nitrophenyl)-3-methyl-N-(5-(4-morpholinyl)-3-pyridinyl)-4-quinolinamine], the inhibition constant Ki was 47.5 nM. Consider `COc1cnccc1-c1ncc(N2CCOCC2)cc1Nc1c(C)c(-c2ccccn2)nc2cc(F)cc(F)c12` [N-(5,7-difluoro-3-methyl-2-(2-pyridinyl)-4-quinolinyl)-3′-methoxy-5-(4-morpholinyl)-2,4′-bipyridin-3-amine], for which affinity was put at a Ki of 7.68 nM. This Ki is about 6.2-fold lower than that of the compound before.
